# In patent US20090149506A1, “INSECTICIDAL COMPOSITIONS WITH IMPROVED EFFECT” (Bayer CropScience AG, priority 2005, published 2009):
# Columns and labels:
# [1] = system: cotton aphid (Aphis gossypii); experiment: Aphis gossypii test (APHIGO), spray treatment of infested cotton leaves; type: in vivo; settings: 0.8 ppm, after 6 d, spray on cotton leaves (Gossypium hirsutum); 100% = all aphids killed, 0% = none killed
# Experimental: Aphis gossypii Test (APHIGO)
# (§1) To produce a suitable preparation of active compound, 1 part by weight of active compound is mixed with the stated amounts of solvent and emulsifier, and the concentrate is diluted with emulsifier-containing water to the desired concentration. If addition of ammonium salts or ammonium salts and penetrant is required, the appropriate amount is added by pipette after dilution of the respective finished preparation solution.
# Cotton leaves (Gossypium hirsutum) which are heavily infested by the cotton aphid (Aphis gossypii) are sprayed with an active compound preparation of the desired concentration.
# (§2) After the desired period of time, the kill in % is determined. 100% means that all aphids have been killed; 0% means that none of the aphids have been killed.
# (§3) In this test, for example, the following embodiments of the invention show good activity: see table below
# [2] = system: Green peach aphid (Myzus persicae); experiment: Myzus persicae test (MYZUPE), spray treatment of infested bell pepper plants; type: in vivo; settings: 0.8 ppm, after 6 d, spray on bell pepper plants (Capsicum annuum); 100% = all aphids killed, 0% = none killed
# Experimental: Myzus persicae Test (MYZUPE)
# as §1
# Bell pepper plants (Capsicum annuum) which are heavily infested by the Green peach aphid (Myzus persicaei) are treated by spraying with the active compound preparation of the desired concentration.
# as §2, §3
structure (smiles),measurement,setting,value
CNC(=O)c1cc(Cl)cc(C)c1NC(=O)c1cc(Br)nn1-c1ncccc1Cl [Example I-1-3],kill in % (% 6 d),[1],0%
same,kill in % (% 6 d),[2],0%
